{"source": "patent US12227539B2", "about": "“Mogroside compounds and uses thereof” (Firmenich SA, priority 2019, dated 2025)", "key": {"[1]": {"assay": "Tasting of a sample of the purified compound (taste perceived, sweetness relative to sucrose)", "conditions": "for sweetness relative to sucrose: tasted at 500 ppm in a water base, approximate", "description": "The sweetness intensity perceived was weaker than the sweetness intensity perceived with mogroside V. However, the perception of licorice and lingering profile of isomogroside IVe was weaker than that of mogroside V (see table on following page)."}, "[2]": {"assay": "Sensory profile scores (Sweet, Licorice, Lingering) compared with mogroside V"}, "[3]": {"conditions": "tasted at a concentration of 250 ppm"}, "[4]": {"conditions": "tasted at a concentration of 500 ppm in a water base"}}, "data": [{"compound": "C[C@H](CC[C@@H](O[C@@H]1O[C@H](CO[C@@H]2O[C@H](CO)[C@@H](O)[C@H](O)[C@H]2O)[C@@H](O)[C@H](O)[C@H]1O[C@@H]1O[C@H](CO)[C@@H](O)[C@H](O)[C@H]1O)C(C)(C)O)[C@H]1CC[C@@]2(C)[C@@H]3CC=C4[C@@H](CC[C@H](O[C@@H]5O[C@H](CO[C@@H]6O[C@H](CO)[C@@H](O)[C@H](O)[C@H]6O)[C@@H](O)[C@H](O)[C@H]5O[C@@H]5O[C@H](CO)[C@@H](O)[C@H](O)[C@H]5O)C4(C)C)[C@]3(C)[C@H](O)C[C@]12C", "note": "(stereo in doubt) [Compound 14a, (1S,4R,9beta,11beta,24R)-1-{[beta-D-glucopyranosyl-(1→2)-[beta-D-glucopyranosyl-(1→6)]-beta-D-glucopyranosyl]oxy}-11,25-dihydroxy-9,10,14-trimethyl-4,9-cyclo-9,10-secocholest-5-en-24-yl beta-D-glucopyranosyl-(1→2)-[beta-D-glucopyranosyl-(1→6)]-beta-D-glucopyranoside]", "values": [{"measurement": "taste perceived", "setting": "[1]; [3]", "result": "No taste"}]}, {"compound": "C[C@H](C(O)C[C@@H](O[C@@H]1O[C@H](CO[C@@H]2O[C@H](CO)[C@@H](O)[C@H](O)[C@H]2O)[C@@H](O)[C@H](O)[C@H]1O)C(C)(C)O)[C@H]1CC[C@@]2(C)[C@@H]3CC=C4[C@@H](CC[C@H](O[C@@H]5O[C@H](CO[C@@H]6O[C@H](CO)[C@@H](O)[C@H](O)[C@H]6O)[C@@H](O)[C@H](O)[C@H]5O)C4(C)C)[C@]3(C)[C@H](O)C[C@]12C", "note": "(stereo partly drawn) [Compound 1a, (1S,4R,9beta,11alpha,24R)-1-{[6-O-(beta-D-glucopyranosyl)-beta-D-glucopyranosyl]oxy}-11,22,25-trihydroxy-9,10,14-trimethyl-4,9-cyclo-9,10-secocholest-5-en-24-yl 6-O-beta-D-glucopyranosyl-beta-D-glucopyranoside]", "values": [{"measurement": "taste perceived", "setting": "[1]; [3]", "result": "No taste"}]}, {"compound": "C[C@H](C(O)C[C@@H](O[C@@H]1O[C@H](CO[C@@H]2O[C@H](CO)[C@@H](O)[C@H](O)[C@H]2O)[C@@H](O)[C@H](O)[C@H]1O)C(C)(C)O)[C@H]1CC[C@@]2(C)[C@@H]3CC=C4[C@@H](CC[C@H](O[C@@H]5O[C@H](CO)[C@@H](O)[C@H](O)[C@H]5O)C4(C)C)[C@]3(C)[C@H](O)C[C@]12C", "note": "(stereo partly drawn) [Compound 2a, (1S,4R,9beta,11alpha,24R)-1-(beta-D-glucopyranosyloxy)-11,22,25-trihydroxy-9,10,14-trimethyl-4,9-cyclo-9,10-secocholest-5-en-24-yl 6-O-beta-D-glucopyranosyl-beta-D-glucopyranoside]", "values": [{"measurement": "sweetness relative to sucrose", "setting": "[1]", "result": "20-50 times sweeter than sucrose"}, {"measurement": "taste perceived", "setting": "[1]; [4]", "result": "weak sweet taste"}]}, {"compound": "C[C@H](C(O)C[C@@H](O[C@@H]1O[C@H](CO[C@@H]2O[C@H](CO)[C@@H](O)[C@H](O)[C@H]2O)[C@@H](O)[C@H](O)[C@H]1O)C(C)(C)O)[C@H]1CC[C@@]2(C)[C@@H]3CC=C4[C@@H](CC[C@H](O[C@@H]5O[C@H](CO)[C@@H](O)[C@H](O)[C@H]5O)C4(C)C)[C@]3(C)[C@@H](O)C[C@]12C", "note": "(stereo partly drawn) [Compound 2b, (1S,4R,9beta,11beta,24R)-1-(beta-D-glucopyranosyloxy)-11,22,25-trihydroxy-9,10,14-trimethyl-4,9-cyclo-9,10-secocholest-5-en-24-yl 6-O-beta-D-glucopyranosyl-beta-D-glucopyranoside]", "values": [{"measurement": "taste perceived", "setting": "[1]; [3]", "result": "No taste"}]}, {"compound": "C[C@H](CC[C@@H](O[C@@H]1O[C@H](CO[C@@H]2O[C@H](CO)[C@@H](O)[C@H](O)[C@H]2O)[C@@H](O)[C@H](O)[C@H]1O[C@@H]1O[C@H](CO)[C@@H](O)[C@H](O)[C@H]1O)C(C)(C)O)[C@H]1CC[C@@]2(C)[C@@H]3C(O)C=C4[C@@H](CC[C@H](O[C@@H]5O[C@H](CO[C@@H]6O[C@H](CO)[C@@H](O)[C@H](O)[C@H]6O)[C@@H](O)[C@H](O)[C@H]5O)C4(C)C)[C@]3(C)[C@H](O)C[C@]12C", "note": "(stereo partly drawn) [Compound 4a, (1S,4R,9beta,11alpha,24R)-1-{[6-O-(beta-D-glucopyranosyl)-beta-D-glucopyranosyl]oxy}-7,11,25-trihydroxy-9,10,14-trimethyl-4,9-cyclo-9,10-secocholest-5-en-24-yl beta-D-glucopyranosyl-(1→2)-[beta-D-glucopyranosyl-(1→6)]-beta-D-glucopyranoside]", "values": [{"measurement": "sweetness relative to sucrose", "setting": "[1]", "result": "30-60 times sweeter than sucrose"}, {"measurement": "taste perceived", "setting": "[1]; [4]", "result": "weak sweet taste"}]}, {"compound": "C[C@H](CC[C@@H](O[C@@H]1O[C@H](CO[C@@H]2O[C@H](CO)[C@@H](O)[C@H](O)[C@H]2O)[C@@H](O)[C@H](O)[C@H]1O[C@@H]1O[C@H](CO)[C@@H](O)[C@H](O)[C@H]1O)C(C)(C)O)[C@H]1CC[C@@]2(C)[C@@H]3CC=C4[C@@H](CC[C@H](O[C@@H]5O[C@H](CO[C@@H]6O[C@H](CO)[C@@H](O)[C@H](O)[C@H]6O)[C@@H](O)[C@H](O)[C@H]5O)C4(C)C)[C@]3(C=O)C(=O)C[C@]12C", "note": "[Compound 6a, (1S,4R,9beta,24R)-9-formyl-1-{[6-O-(beta-D-glucopyranosyl)-beta-D-glucopyranosyl]oxy}-25-hydroxy-10,14-dimethyl-11-oxo-4,9-cyclo-9,10-secocholest-5-en-24-yl beta-D-glucopyranosyl-(1→2)-[beta-D-glucopyranosyl-(1→6)]-beta-D-glucopyranoside]", "values": [{"measurement": "sweetness relative to sucrose", "setting": "[1]", "result": "100-200 times sweeter than sucrose"}, {"measurement": "taste perceived", "setting": "[1]; [4]", "result": "strong sweet taste"}]}, {"compound": "CC(C)(O)[C@@H](CC[C@](C)(O)[C@H]1CC[C@@]2(C)[C@@H]3CC=C4[C@@H](CC[C@H](O[C@@H]5O[C@H](CO[C@@H]6O[C@H](CO)[C@@H](O)[C@H](O)[C@H]6O)[C@@H](O)[C@H](O)[C@H]5O)C4(C)C)[C@]3(C)[C@H](O)C[C@]12C)O[C@@H]1O[C@H](CO[C@@H]2O[C@H](CO)[C@@H](O)[C@H](O)[C@H]2O)[C@@H](O)[C@H](O)[C@H]1O[C@@H]1O[C@H](CO)[C@@H](O)[C@H](O)[C@H]1O", "note": "[Compound 7a, (1S,4R,9beta,11alpha,24R)-1-{[6-O-(beta-D-glucopyranosyl)-beta-D-glucopyranosyl]oxy}-11,20,25-trihydroxy-9,10,14-trimethyl-4,9-cyclo-9,10-secocholest-5-en-24-yl beta-D-glucopyranosyl-(1→2)-[beta-D-glucopyranosyl-(1→6)]-beta-D-glucopyranoside]", "values": [{"measurement": "taste perceived", "setting": "[1]; [3]", "result": "No taste"}]}, {"compound": "CC(C)(O)[C@@H](CC[C@](C)(O)[C@H]1CC[C@@]2(C)[C@@H]3CC=C4[C@@H](CC[C@H](O[C@@H]5O[C@H](CO)[C@@H](O)[C@H](O)[C@H]5O)C4(C)C)[C@]3(C)C(=O)C[C@]12C)O[C@@H]1O[C@H](CO[C@@H]2O[C@H](CO)[C@@H](O)[C@H](O)[C@H]2O)[C@@H](O)[C@H](O)[C@H]1O", "note": "[Compound 8a, (1S,4R,9beta,24R)-1-(beta-D-glucopyranosyloxy)-20,25-dihydroxy-9,10,14-trimethyl-11-oxo-4,9-cyclo-9,10-secocholest-5-en-24-yl 6-O-beta-D-glucopyranosyl-beta-D-glucopyranoside]", "values": [{"measurement": "taste perceived", "setting": "[1]; [3]", "result": "No taste"}]}, {"compound": "CC(C)(O)[C@@H](CC[C@](C)(O)[C@H]1CC[C@@]2(C)[C@@H]3CC=C4[C@@H](CC[C@H](O[C@@H]5O[C@H](CO[C@@H]6O[C@H](CO)[C@@H](O)[C@H](O)[C@H]6O)[C@@H](O)[C@H](O)[C@H]5O[C@@H]5O[C@H](CO)[C@@H](O)[C@H](O)[C@H]5O)C4(C)C)[C@]3(C)C(=O)C[C@]12C)O[C@@H]1O[C@H](CO[C@@H]2O[C@H](CO)[C@@H](O)[C@H](O)[C@H]2O)[C@@H](O)[C@H](O)[C@H]1O", "note": "[Compound 9a, (1S,4R,9beta,24R)-24-{[6-O-(beta-D-glucopyranosyl)-beta-D-glucopyranosyl]oxy}-20,25-dihydroxy-9,10,14-trimethyl-11-oxo-4,9-cyclo-9,10-secocholest-5-en-1-yl beta-D-glucopyranosyl-(1→2)-[beta-D-glucopyranosyl-(1→6)]-beta-D-glucopyranoside]", "values": [{"measurement": "taste perceived", "setting": "[1]; [3]", "result": "No taste"}]}, {"compound": "C[C@H](CC[C@@H](O[C@@H]1O[C@H](CO[C@@H]2O[C@H](CO)[C@@H](O)[C@H](O)[C@H]2O)[C@@H](O)[C@H](O)[C@H]1O[C@@H]1O[C@H](CO)[C@@H](O)[C@H](O)[C@H]1O)C(C)(C)O)[C@H]1CC[C@@]2(C)[C@@H]3CC=C4[C@@H](CC[C@H](O[C@@H]5O[C@H](CO[C@@H]6O[C@H](CO)[C@@H](O)[C@H](O)[C@H]6O)[C@@H](O)[C@H](O)[C@H]5O)C4(C)C)[C@]3(C)[C@H](O)C[C@]12C", "note": "[Mogroside V, reference compound]", "values": [{"measurement": "Licorice", "setting": "[2]; Dosage 250 ppm", "result": 3.8}, {"measurement": "Lingering", "setting": "[2]; Dosage 250 ppm", "result": 4.9}, {"measurement": "Sweet", "setting": "[2]; Dosage 250 ppm", "result": 6.0}, {"measurement": "Licorice", "setting": "[2]; Dosage 500 ppm", "result": 4.2}, {"measurement": "Lingering", "setting": "[2]; Dosage 500 ppm", "result": 5.2}, {"measurement": "Sweet", "setting": "[2]; Dosage 500 ppm", "result": 7.2}]}, {"compound": "(1S,4R,9beta,11alpha,24R)-24-{[6-O-(beta-D-glucopyranosyl)-beta-D-glucopyranosyl]oxy}-11,22,25-trihydroxy-9,10,14-trimethyl-4,9-cyclo-9,10-secocholest-5-en-1-yl 4-O-beta-D-glucopyranosyl-beta-D-glucopyranoside [Compound 3a]", "values": [{"measurement": "taste perceived", "setting": "[1]; [3]", "result": "No taste"}]}, {"compound": "(1S,4R,9beta,24R)-1-{[6-O-(beta-D-glucopyranosyl)-beta-D-glucopyranosyl]oxy}-25-hydroxy-9-(hydroxymethyl)-10,14-dimethyl-11-oxo-4,9-cyclo-9,10-secocholest-5-en-24-yl beta-D-glucopyranosyl-(1→2)-[beta-D-glucopyranosyl-(1→6)]-beta-D-glucopyranoside [Compound 5a]", "values": [{"measurement": "taste perceived", "setting": "[1]; [3]", "result": "No taste"}]}, {"compound": "[(1S,4R,9beta,10R,24R)-24-{[beta-D-glucopyranosyl-(1→6)-beta-D-glucopyranosyl-(1→6)-beta-D-glucopyranosyl]oxy}-1,25-dihydroxy-9,14-dimethyl-11-oxo-4,9-cyclo-9,10-secocholest-5-en-10-yl]methyl beta-D-glucopyranosyl-(1→6)-[beta-D-glucopyranosyl-(1→4)-beta-D-glucopyranosyl-(1→2)]-beta-D-glucopyranoside [Compound 10a]", "values": [{"measurement": "taste perceived", "setting": "[1]; [3]", "result": "No taste"}]}, {"compound": "isomogroside IVe", "values": [{"measurement": "perception of licorice and lingering profile compared with mogroside V", "setting": "[2]; 250 ppm in a water base", "result": "weaker"}]}]}
